Drawing on PubChem BioAssay (NCI), this text covers TGI and GI50 for 29 molecules.

Usually TGI stands for the concentration giving total growth inhibition. Broadly, the GI50 is the concentration at which growth is held to half of that of the control.

Molecules are shown by their SMILES.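 Where inhibition never reached the appropriate level, the endpoint shown equals the highest concentration tested. Otherwise, values were interpolated linearly from a five-concentration, 48-hour dose response in 96-well plates. The concentration for 50% growth inhibition is given as GI50. TGI denotes the concentration required for complete inhibition of growth.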

Holding throughout (experiment): DTP human tumour cell line panel, 48 h
Assay [1] relates to ACHN renal.
Assay [2] deals with SR leukemia.
In assay [3] the test system is NCI/ADR-RES ovarian.
The subject of assay [4] is T-47D breast.
Assay [5] has as its system LOX IMVI melanoma.
The test system of assay [6] is HS 578T breast.
Assay [7] concerns SF-295 CNS.
The test system of assay [8] is EKVX NSCLC.
Assay [9] relates to K-562 leukemia.
For assay [10], the system named is IGROV1 ovarian.

As to `COc1cc(/C=N\N(C)C)cc(/C=N/N(C)C)c1O`, the TGI was 87.9 µM in assay [1]; 32.3 µM in [2]; over 100 µM in assay [3]; 15.2 µM in assay [4]; 58.7 µM in assay [5]; 20.9 µM in [6]. The TGI in assay [7] is 8.9 µM.

`COC(=O)c1cc(C)ccc1C1CN=NC12Cc1ccc(C)cc1C2=O` (stereo unspecified): the TGI in assay [1], in assay [8], in assay [3], in assay [9], in [4] and in [10] was over 100 µM in each case. For the same molecule, the TGI in assay [5], in [6] and in assay [7] was over 100 µM each time.

As for `COc1ccccc1NC(=S)Nc1cc(C)cc(C)n1`, the TGI in [1], in [8], in [3], in assay [9], in assay [4] and in [10] was over 100 µM in each case. In addition, the TGI in assay [5], in assay [6] and in assay [7] was over 100 µM each time.

As to `COc1cc(/C=C2/SC(c3ccccc3)N(c3ccccc3Cl)C2=O)cc(OC)c1OC` (stereo unspecified), the TGI in assay [1] is over 100 µM; in assay [8], over 100 µM; in assay [2], 58.9 µM; in [3], 85.3 µM; in assay [9], over 100 µM; in assay [4] it was over 100 µM. Further, the results for the TGI in assay [5], in [6] and in assay [7] were 41.7 µM, over 100 µM and over 100 µM, respectively.

Consider `OC1(c2ccccc2)C2CCN(CC2)C1CN1CCOCC1` (stereo unspecified), for which the TGI in [1], in assay [8], in [2], in assay [3], in [9] and in assay [4] was over 100 µM each time. The TGI in assay [10], in assay [5] and in assay [7] was over 100 µM each time.

Regarding `COc1ccc(/C=C2\CCC(C)C3C2=NN(c2ccccc2)C3c2ccc(OC)c(OC)c2)cc1OC` (stereo unspecified), the total growth inhibition concentration (TGI) amounted to 14.6 µM in [1]; 6.9 µM in assay [8]; 18.3 µM in [3]; 18.5 µM in assay [9]; 9.08 µM in assay [4]; 8.23 µM in assay [10]. In addition, the concentration for total growth inhibition (TGI) in assay [5] was 8.63 µM; in assay [6], over 100 µM; in assay [7], 7.55 µM.

`COc1ccc2c(c1)-c1nc(=S)n(CCCN(C)C)c3ccc([N+](=O)[O-])c(c13)N2`: the TGI in [1] amounted to 14.4 µM; in assay [8], 14.5 µM; in [3], 9.23 µM; in assay [9] it was 3.04 µM; in assay [4], 40.8 µM; in [10] it was 2.41 µM. Further, the TGI stood at 4.57 µM in [5], 5.6 µM in assay [6] and 21.2 µM in assay [7].

For `OCCCNc1nc(=S)[nH]c2[nH]ncc12`, the GI50 in assay [1] is 40 µM; in assay [8] it was 50.7 µM; in assay [3], over 100 µM; in [9], 44.5 µM; in assay [4], 45 µM; in assay [10], 29.9 µM. Moreover, the GI50 was 25.4 µM in assay [5], 30.7 µM in assay [6] and 49 µM in assay [7]. In addition, the TGI in assay [1], in [8], in [3], in [9], in [4] and in assay [10] was over 100 µM throughout. Further, the values for the TGI in [5], in assay [6] and in [7] were 84.5 µM, 85.1 µM and over 100 µM, respectively.

For the molecule `O=S(=O)(SC1=NCCN1)c1ccc2ccccc2c1`, the TGI in assay [1] was over 100 µM; in assay [8] it was over 100 µM; in [3], 51.8 µM; in [9], 55 µM; in assay [4], over 100 µM; in assay [10] it was over 100 µM. The values for the total growth inhibition concentration (TGI) in assay [5], in [6] and in assay [7] were over 100 µM, over 100 µM and 65.8 µM, respectively.

In the case of `O=c1oc2ccccc2cc1-c1csc(Nc2ccc(F)cc2)n1`, the TGI in assay [1] came out at 26.3 µM; in assay [8], 8.63 µM; in [3] it was 13 µM; in [9], 20.6 µM; in assay [4], 10.7 µM; in [10], 21.9 µM. The TGI in assay [5] was found to be 14.9 µM; in [6] it was 4.61 µM; in [7], 10.7 µM.

As to `O=c1cc(N2CCNCC2)nc2ccccn12`, the TGI in assay [1], in assay [8], in assay [3], in assay [9], in assay [4] and in assay [10] was over 100 µM each time. Besides, the TGI in assay [5], in [6] and in assay [7] was over 100 µM throughout.

On to `CCOC(=O)CCCNC(=O)CCCCC(=O)N(C)C`, for which the TGI in assay [1], in assay [8], in [3], in [9], in assay [4] and in [10] was over 100 µM in each case. The TGI in assay [5], in assay [6] and in [7] was over 100 µM each time.

With `N#CC12CNCC1CN=N2` (stereo unspecified), the TGI in [1], in assay [8], in assay [2], in [3], in [9] and in assay [4] was over 100 µM throughout. Moreover, the TGI in assay [10], in assay [5] and in assay [7] was over 100 µM in each case.

For `N#CC1C(=O)N(c2ccccc2)NC12OC(=O)c1ccncc12` (stereo unspecified), the TGI in [1], in assay [8], in [2], in assay [3], in [9] and in assay [4] was over 20 µM in each case. Besides, the TGI in assay [10], in [5] and in assay [7] was over 20 µM in each case.

Take `Cc1c(C)c(C)n(C2OC(CO)C(O)C(O)C2O)c(=S)c1C#N` (stereo unspecified): the TGI in assay [1], in [8], in assay [2], in assay [3], in assay [9] and in assay [4] was over 100 µM each time. The TGI in assay [10], in assay [5] and in [7] was over 100 µM each time.

On to `CC(=O)Oc1cc(Cl)c(C)c2c1[C@H]1CC[C@]3(C)[C@@H](OC(C)=O)CC[C@H]3[C@@H]1CC2`, for which the TGI in assay [1], in assay [8], in assay [3], in assay [9], in assay [4] and in [10] was over 100 µM throughout. Moreover, the TGI in [5], in [6] and in assay [7] was over 100 µM in each case.

As for `CN1CCN(c2ccc3[nH]c(-c4cc(O)c5c(nc(CO)n5C)c4O)nc3n2)CC1`, the TGI in assay [1] was over 100 µM; in assay [8] it was 85.8 µM; in [3] it was over 100 µM; in assay [9], over 100 µM; in [4], over 100 µM; in [10], over 100 µM. Further, the figures for the TGI in assay [5], in [6] and in assay [7] were 37.9 µM, over 100 µM and over 100 µM, respectively.

In the case of `C[N+](C)(C)CCCSc1nc2ccccc2[nH]1`, the TGI in [1], in assay [8], in assay [3], in [9], in [4] and in [10] was over 100 µM each time. Also, the TGI in assay [5], in [6] and in [7] was over 100 µM in each case.

On to `CC(C)(C)C(=O)OCOP(=O)(OCOC(=O)C(C)(C)C)OCC1OC(n2ccc(=O)[nH]c2=O)C(N=[N+]=[N-])C1O` (stereo unspecified), for which the concentration for total growth inhibition (TGI) in assay [1] is 17.8 µM; in assay [8], 20.6 µM; in assay [3], 23.5 µM; in [9], over 100 µM; in assay [4], 11.7 µM; in [10], 17.5 µM. The TGI in [5] amounted to 3.44 µM; in [6], 7.64 µM; in [7], 25.4 µM.

With `Cc1ccc(S(=O)(=O)c2ccsc2NC(=O)C(F)(F)F)cc1`, the TGI in assay [1], in assay [8], in assay [3], in assay [4], in assay [10] and in assay [5] was over 100 µM each time. Moreover, the TGI in assay [6] and in assay [7] was over 100 µM each time.

For the molecule `CC(=N)OC1CC2CCC1(C)C2(C)C` (stereo unspecified), the TGI in assay [1], in assay [8], in assay [2], in [9], in assay [4] and in assay [10] was over 100 µM each time. In addition, the TGI in assay [5], in assay [6] and in [7] was over 100 µM throughout.

For `O=c1c2ccccc2[nH]c2c(Cl)cc(Cl)c(NC3CCCCC3)c12`, the TGI is 37.7 µM in assay [1]; 76.8 µM in assay [8]; over 100 µM in assay [2]; 44 µM in assay [3]; over 100 µM in assay [9]; over 100 µM in assay [4]. For the same molecule, the TGI in assay [10] is 96.2 µM; in assay [5], over 100 µM; in assay [7], over 100 µM.

`CCOC(=O)c1oc2cc3c(c4c2c1-c1ccccc1N4C)C=CC(C)(C)O3`: the TGI is 30.5 µM in assay [1]; 46.6 µM in assay [8]; 27.6 µM in assay [3]; over 91 µM in [9]; over 84.4 µM in assay [4]; 46.5 µM in assay [10]. In addition, the TGI is over 100 µM in [5], 75.1 µM in assay [6] and 30.8 µM in assay [7].

Consider `Oc1c2cc(Cl)cc1COCc1cc(Cl)cc(c1O)COCc1cc(Cl)cc(c1O)COC2`, for which the TGI in assay [1], in assay [8], in [2], in [3], in assay [9] and in [4] was over 100 µM in each case. Moreover, the TGI in [10], in assay [5] and in assay [7] was over 100 µM throughout.

On to `C/C(Cl)=N/OC(=O)Nc1ccc(S(N)(=O)=O)c(C)c1`, for which the TGI in [1] is 5.37 µM; in assay [8], 13 µM; in assay [3], over 55.5 µM; in assay [9], 3.35 µM; in assay [4], 9.98 µM; in [10], 33.4 µM. The TGI in [5] was 6.19 µM; in assay [6], over 79.4 µM; in assay [7] it was 45.3 µM.

With `CCC(C)(C)C1CCC2c3c([nH]c4ccccc34)C3C(=O)N(c4ccc(OC)cc4)C(=O)C3C2C1` (stereo unspecified), the TGI in assay [1] was 58.6 µM; in [8], over 100 µM; in assay [2] it was 75.3 µM; in assay [3], 44.4 µM; in [9] it was over 100 µM; in [4], 38.4 µM. Also, the TGI in assay [10] was 90.8 µM; in assay [5] it was 23.7 µM; in assay [7], 64.2 µM.

For `COC(=O)/C=C(/C=C1/C(C#N)=C(N)N(c2ccc(Cl)cc2)C1(C)/C(=C/C(=O)OC)C(=O)OC)C(=O)OC` (stereo unspecified), the TGI in assay [1] is over 100 µM; in assay [8], over 100 µM; in assay [2], over 100 µM; in assay [3], over 100 µM; in assay [9] it was 50.5 µM; in [4], over 100 µM. For the same molecule, the TGI is over 100 µM in assay [10], 84.6 µM in [5] and over 100 µM in assay [7].

On to `O=C(O)CCC(=O)Nc1ccc2ccccc2c1`, for which the TGI in assay [1], in [8], in assay [3], in assay [9], in assay [4] and in [10] was over 100 µM each time. Moreover, the TGI in [5], in [6] and in assay [7] was over 100 µM throughout.

`CCCC/C=C/C/C=C/CCCCCCCCC(=O)OCC1CCCN2CCCCC12` (stereo unspecified): the TGI in assay [1] is over 100 µM; in assay [8] it was over 100 µM; in assay [3], over 100 µM; in assay [9] it was over 100 µM; in assay [4] it was 88.6 µM; in assay [5] it was over 100 µM. In addition, the TGI in [6] and in assay [7] was over 100 µM throughout.
